Assay results from patent US20230255934A1, “NURR1 RECEPTOR MODULATORS AND USES THEREOF” (The Regents of the University of California, priority 2020, published 2023).
Residue numbers refer to the chain shown, from its start. Like-named read-outs stand apart in the source and are kept apart here.

How the values were obtained:
MN9D cells = assay: CytoTox-Glo cytotoxicity assay; type: cell-based; conditions: 24 h treatment, 10 μM unless stated
Description: Cytotoxicity assays were carried out using the CytoTox-Glo Cytotoxicity Assay Kit (Promega) according to the manufacturer's instructions. Briefly, MN9D cells were resuspended in DMEM/F-12 with 5% FBS at 2·10^5 cells/ml and added to an equal volume of two-fold concentrated compound in the same media containing 0.2% DMSO (prepared by diluting DMSO stock of the compound in warm DMEM/F-12 with 5% FBS; for DMSO control equivalent volume of DMSO was used instead of the compound stock), and immediately re-plated onto poly-D-lysine pre-treated 96-well white-walled flat clear bottom plate (Corning cat #3903) at a density of 1·10^4 cells/well (100 μL/well), 3 replicas per compound. As a background (BG) control, for each of the compound (or DMSO) equivalent volume of compound mixed with DMEM/F-12+5% FBS was plated. After 24 h treatment at 37° C., in 5% C02 incubator, 50 μL of CytoTox-Glo™ Cytotoxicity Assay Reagent was added to each well, mixed briefly by orbital shaking and incubated for 15 min at ambient temperature. Luminescence signal corresponding to dead cells was measured using Biotek Synergy H4 hybrid microplate reader. After the measurement, 50 μL of Lysis Reagent was added to each well, mixed, incubated for 15 min at ambient temperature, and total luminescence was measured. The percentage of viable cells was then calculated as follows: Percent Viable Cells (%)=100% (Total cell luminescence (test compound)—Dead cell luminescence (test compound))/(Total cell luminescence (DMSO)—Dead cell luminescence (DMSO)).

[1] = Chemical stability in solution; type: physicochemical; conditions: observed during data acquisition
Nurr1 LBD (wildtype) = target: T1, Nurr1 LBD (wildtype) (Homo sapiens, UniProt P43354); assay: Microscale thermophoresis (MST) binding to wildtype Nurr1 LBD; conditions: for Binding to the Nurr1 LBD (in words): MST; for Amplitude: Table 1, MST amplitude, WT; for Response Amplitude: Table 2, MST, Wildtype
T1 construct: made in house
T1 sequence (P43354 with tags, fused parts or gaps): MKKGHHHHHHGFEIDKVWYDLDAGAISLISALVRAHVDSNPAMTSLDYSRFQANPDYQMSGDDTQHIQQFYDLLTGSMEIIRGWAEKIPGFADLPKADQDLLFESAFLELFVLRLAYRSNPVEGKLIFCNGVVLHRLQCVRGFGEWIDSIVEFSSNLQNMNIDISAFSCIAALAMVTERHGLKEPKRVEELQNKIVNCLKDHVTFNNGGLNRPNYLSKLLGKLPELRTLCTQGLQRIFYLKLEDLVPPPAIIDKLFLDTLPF
Description: (§1) Concentration-dependent association of the indoles with the Nurr1 LBD was carried out using microscale thermophoresis. Stock solutions (10 mM in DMSO) of each indole were serially diluted (200 μM indole, 0.5× dilutions down to 0.0061 μM) in MST buffer (25 mM HEPES, pH 7.4, 150 mM NaCl, and 0.1% Pluronic F127) containing 2% DMSO. The dilutions were carried out with 4% DMSO in the MST buffer for a total of 16 concentrations. Equivalent volumes and concentrations of the fluorescently labeled Nurr1 LBD in MST buffer were added to each ligand dilution in the series to reach a final concentration of 75 nM labeled protein. After incubating for 20 minutes, the samples were loaded into Monolith NT.115 Capillaries (Nanotemper).
(§2) Data were collected using the Monolith NT.115 System (Nanotemper), with settings for all samples at 40% excitation power and 40% MST power. The initial fluorescence was recorded for 3 sec and the thermophoresis fluorescence response was recorded for 20 sec. The data was inspected with Palmist software^5, and data points affected by initial fluorescence quenching or photobleaching were eliminated. The fluorescent response for each sample was normalized to the initial fluorescence using Palmist software to provide the values of thermophoresis (Fn). The resulting data was used to generate a plot of the change in thermophoresis (Fn-Fn0, where Fn=thermophoresis and Fn0=thermophoresis response in unbound range) versus concentration of the ligand. GraphPad Prism v. 8.3.0 software was used to fit the resulting data to a mass action equation for a specific binding with Hill slope, solving for KD: Fn-Fn0═Fmax·[L]^n/(KD^n+[L]^n), where Fmax=maximum amplitude of thermophoresis, [L]=concentration of the ligand at a specific point, KD=dissociation constant, nH=Hill Coefficient.
To investigate the potential impact of compound nano-aggregation on binding affinity, we used dynamic light scattering to inspect the aggregation of 5-chlorindole in solution and repeated the MST binding experiments in the presence of increasing concentrations of the surfactant Pluoronic F127 (FIGS. 12A-12D). […] As well, increasing concentrations of the surfactant Pluronic F127 had small effects (<2-fold) on the affinity of 5-chloroindole for the Nurr1 LBD (FIGS. 12A-12D).

Nurr1 LBD His516Ala = target: T2, Nurr1 LBD His516Ala (Homo sapiens, UniProt P43354, H516A); assay: MST binding to His516Ala mutant Nurr1 LBD; conditions: for Amplitude (% change) / KD (% change): Table 1, H516 relative to WT; for Amplitude: Table 1, MST amplitude, H516; for Response Amplitude: Table 2, MST, His516Ala
T2 construct: Mutants of LAP2 Nurr1 were prepared by GenScript starting from LAP2 Nurr1 vector; made in house
T2 sequence (P43354 with tags, fused parts or gaps H516A): as the sequence (P43354 with tags, fused parts or gaps) above, with H180A counted along it
Description: (§3) The plasmid used for the expression of LAP2-tagged Nurr1 LBDs (LAP2 Nurr1) was prepared by GenScript (Piscataway, N.J.) as the product of gene synthesis and subcloning into pET-21a(+) Vector (GenScript) using the Ndel and Xhol sites within the MCS. Mutants of LAP2 Nurr1 were prepared by GenScript starting from LAP2 Nurr1 vector.
as §1, §2

Nurr1 LBD Arg563Ala = target: T3, Nurr1 LBD Arg563Ala (Homo sapiens, UniProt P43354, R563A); assay: MST binding to Arg563Ala mutant Nurr1 LBD; conditions: for Amplitude: Table 1, MST amplitude, R563A; for Amplitude (% change) / KD (% change): Table 1, R563A relative to WT; for Response Amplitude: Table 2, MST, Arg563Ala
T3 construct: Mutants of LAP2 Nurr1 were prepared by GenScript starting from LAP2 Nurr1 vector; made in house
T3 sequence (P43354 with tags, fused parts or gaps R563A): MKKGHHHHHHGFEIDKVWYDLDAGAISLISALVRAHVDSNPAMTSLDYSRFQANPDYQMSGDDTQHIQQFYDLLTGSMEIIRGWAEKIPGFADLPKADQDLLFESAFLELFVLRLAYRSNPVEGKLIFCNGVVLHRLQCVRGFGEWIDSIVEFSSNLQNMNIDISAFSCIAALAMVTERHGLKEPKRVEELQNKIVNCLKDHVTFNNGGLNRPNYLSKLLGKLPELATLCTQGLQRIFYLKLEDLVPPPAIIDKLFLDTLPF
Description: as §3, §1, §2

[2] = target: T4, Nurr1 LBD Arg563Ala + His516Ala (Homo sapiens, UniProt P43354, H516A/R563A); assay: MST binding to Arg563Ala + His516Ala double mutant Nurr1 LBD; conditions: for Amplitude (% change) / KD (% change): Table 1, H516A/R563A relative to WT; for Amplitude: Table 1, MST amplitude, H516A/R563A; for Response Amplitude: Table 2, MST, Arg563Ala + His516Ala
T4 construct: Mutants of LAP2 Nurr1 were prepared by GenScript starting from LAP2 Nurr1 vector; made in house
T4 sequence (P43354 with tags, fused parts or gaps H516A/R563A): T3 sequence (P43354 with tags, fused parts or gaps R563A) with H180A
Description: as §3, §1, §2

[3] = system: Nurr1 target genes Th and Vmat2 in MN9D cells; assay: Target gene transcription assay (qPCR) in MN9D cells; type: cell-based, mouse
Description: Target Gene Transcription Assays. These assays were carried out using standard protocols. MN9D TET-ON frozen cell stocks (P5) were thawed and grown for 60-72 h on poly-D-lysine pre-treated culture dishes (100 mm) in Dulbecco's Modified Eagle Medium/Nutrient Mixture F-12 (DMEM/F-12; Gibco) supplemented with 5% Tet System Approved FBS (Takara Bio USA) at 37° C., 5% C02 to ˜80% confluency. The resulting cells were then trypsinized with 0.25% Trypsin-EDTA (Gibko) and diluted to 2·10^5 cells/ml with fresh medium. The resulting cell suspension (0.8 mL) was added to 2× concentrated compound in the same medium containing 0.2% DMSO (0.8 mL) in an Eppendorf tube. The cell suspension with compound or vehicle (DMSO) was then seeded onto a 24-well plate pre-treated with Poly-D-Lysine at 0.8 mL per well. Assays were performed under conditions of basal Nurr1 expression, without induction of additional Nurr1 expression using doxycycline.
After 24 h, total RNA was extracted the cells in each well using the Quick-RNA MiniPrep Plus Kit (Zymo Research), according to the manufacturer's instructions. The cDNA was then synthesized from 1000 ng of purified RNA using High-Capacity cDNA Reverse Transcription Kit (Applied Biosystems) and used as template. The qPCR as performed using iTaq Universal SYBR Green Supermix (BioRad) and CFX96 Real-Time Detection System machine (BioRad). Briefly, qPCR was performed in hard-shell 96-well PCR plates (BioRad) using cDNA corresponding to 8.75 ng of starting total RNA in a volume of 15 μl, containing 7.5 μl of SYBR Green Supermix, and 1 μL of 10 μM forward and reverse primers. Cycling parameters for qPCR included an initial denaturation at 95° C. for 3 min, followed by 40 cycles of 95° C. for 5 s and annealing at 56° C. for 30 s. The forward and reverse primers (Table 4) were ordered from IDT. Gene expression was quantified by the comparative2-ΔΔCt method, with the mouse housekeeping gene hypoxanthine-guanine phosphoribosyltransferase (Hprt) used as internal reference to determine the relative mRNA expression. Transcript levels for target genes were normalized to the housekeeping gene Hprt and fold change was compared to gene expression levels from vehicle (DMSO) only treated cells. GraphPad Prism 8 software was used for statistical analysis. Two-way ANOVA was applied for DMSO fold change vs compound. Results are from three independent experiments. Relative average expression±SD; *p<0.05, **p<0.01, ***p<0.001, ****p<0.0001 by ANOVA in comparison expression with 0 μM compound (DMSO only).

[4] = Table 1, Nurr1 variant WT, read-out: KD
[5] = Table 2, Wildtype, read-out: Affinity (KD)
[6] = Table 1, Nurr1 variant H516, read-out: KD
[7] = Table 2, His516Ala, read-out: Affinity (KD)
[8] = Table 1, Nurr1 variant R563A, read-out: KD
[9] = Table 2, Arg563Ala, read-out: Affinity (KD)
[10] = Table 1, Nurr1 variant H516A/R563A, read-out: KD
[11] = Table 2, Arg563Ala + His516Ala, read-out: Affinity (KD)

| Structure (SMILES) | Cytotoxicity / cell viability (MN9D cells) | Chemical instability in solution [1] | Binding to the Nurr1 LBD (in words) (Nurr1 LBD (wildtype)) | Amplitude (Nurr1 LBD (wildtype)) | Kd (Nurr1 LBD (wildtype); [4]) [µM] | Response Amplitude (Nurr1 LBD (wildtype)) | Kd (Nurr1 LBD (wildtype); [5]) [µM] | Amplitude (% change) (Nurr1 LBD His516Ala) | KD (% change) (Nurr1 LBD His516Ala) | Amplitude (Nurr1 LBD His516Ala) | Kd (Nurr1 LBD His516Ala; [6]) [µM] | Kd (Nurr1 LBD His516Ala; [7]) [µM] | Response Amplitude (Nurr1 LBD His516Ala) | Amplitude (Nurr1 LBD Arg563Ala) | Kd (Nurr1 LBD Arg563Ala; [8]) [µM] | Amplitude (% change) (Nurr1 LBD Arg563Ala) | KD (% change) (Nurr1 LBD Arg563Ala) | Kd (Nurr1 LBD Arg563Ala; [9]) [µM] | Response Amplitude (Nurr1 LBD Arg563Ala) | Amplitude (% change) [2] | other results |
| --- | --- | --- | --- | --- | --- | --- | --- | --- | --- | --- | --- | --- | --- | --- | --- | --- | --- | --- | --- | --- | --- |
| Nc1ccc2[nH]ccc2c1 [5-aminoindole] | significant cytotoxicity | autooxidation and polymerization in solution |  |  |  |  |  |  |  |  |  |  |  |  |  |  |  |  |  |  |  |
| Nc1ccc2cc[nH]c2c1 [6-aminoindole] | significant cytotoxicity | autooxidation and polymerization in solution |  |  |  |  |  |  |  |  |  |  |  |  |  |  |  |  |  |  |  |
| Clc1cc2cc[nH]c2cc1Cl [5,6-dichloroindole] |  |  | saturable binding | 54 + 4 | 4.5 | 54 + 4 | 4.5 | +19% | +166% | 67 + 9 | 12 | 12 | 67 + 9 (ns) | 47 + 3 | 13 | −13% | +189% | 13.1 | 47 + 3 (ns) | 0% | KD (% change) [2]: +304%; Amplitude [2]: 54 + 5; Kd [2, 10]: 18 µM; Kd [2, 11]: 17.9 µM; Response Amplitude [2]: 54 + 5 (ns); Effect on expression of Nurr1 target genes Th and Vmat2 (in words) [3]: does not |
| Brc1cc2cc[nH]c2cc1Br [5,6-dibromoindole] |  |  | saturable binding | 31 + 1 | 2.2 | 31 + 1 | 2.2 | +13% | +186% | 35 + 2 | 6.3 | 6.4 | 35 + 2 (ns) | 32 + 3 | 11 | +3% | +400% | 11 | 32 + 3 (ns) | +39% | KD (% change) [2]: +627%; Amplitude [2]: 43 + 5; Kd [2, 10]: 16 µM; Kd [2, 11]: 15.6 µM; Response Amplitude [2]: 43 + 5 (ns); Effect on expression of Nurr1 target genes Th and Vmat2 (in words) [3]: does not |
| Oc1ccc2cc[nH]c2c1 [6-hydroxyindole] | significant cytotoxicity | autooxidation and polymerization in solution |  |  |  |  |  |  |  |  |  |  |  |  |  |  |  |  |  |  |  |
| Oc1ccc2[nH]ccc2c1 [5-hydroxyindole] | significant cytotoxicity | autooxidation and polymerization in solution |  |  |  |  |  |  |  |  |  |  |  |  |  |  |  |  |  |  |  |
